Read-outs that look alike come from different tables or passages of the source.
Tests used:
NTR1 = NTR1 (Homo sapiens (Human), UniProt P30989); conditions: cited from earlier work
human NTSR-1 = human NTSR-1 (Homo sapiens (Human), UniProt P30989); test: radioligand competitive binding assay using ^177Lu labeled C-1 as reference radioligand; conditions: for IC50: Nonlin fit, single assay, HT-29 cells
Summary of the method: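 HT-29 cells expressing human NTSR-1 incubated with ¹⁷⁷Lu-C-1 (0.55 μCi/well) and test compound in RPMI-1640 + 0.25% BSA, 1 h at 37 °C (n=3). Unbound label removed by filtration, cell-bound radioactivity gamma-counted; IC50 from nonlinear regression of displacement.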

Chain of human NTSR-1 (P30989 whole entry): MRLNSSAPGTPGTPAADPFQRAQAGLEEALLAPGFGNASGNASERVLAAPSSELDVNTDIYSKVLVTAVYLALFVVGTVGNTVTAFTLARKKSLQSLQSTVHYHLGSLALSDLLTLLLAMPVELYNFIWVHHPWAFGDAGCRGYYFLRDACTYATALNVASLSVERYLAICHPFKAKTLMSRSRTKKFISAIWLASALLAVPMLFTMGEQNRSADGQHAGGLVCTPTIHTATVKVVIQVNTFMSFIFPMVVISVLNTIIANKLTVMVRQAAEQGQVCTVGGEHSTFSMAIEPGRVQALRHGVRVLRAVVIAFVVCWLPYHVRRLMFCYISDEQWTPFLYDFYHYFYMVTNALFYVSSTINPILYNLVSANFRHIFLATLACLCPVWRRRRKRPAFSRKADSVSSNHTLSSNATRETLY
Chain of NTR1 (P30989 whole entry, species assumed): as the sequence (P30989 whole entry) above

- Relative Binding Affinity (human NTSR-1; Mean IC50 of C-1/Mean IC50 of the test compound): 13.7
- IC50 (human NTSR-1; read-out: IC50 (nM) Mean): 2.05 nM
- IC50 (human NTSR-1; read-out: LogIC50 Mean (converted)): 2.05 nM
SMILES: COc1cccc(OC)c1-c1cc(C(=O)NC2(C(=O)O)C3CC4CC(C3)CC2C4)nn1-c1ccc(C(=O)N(C)CCCN(C)C)cc1C(C)C (stereo not shown) [Compound C-3, reference compound]
- binding affinity to NTR1 as an antagonist (NTR1): high binding affinity

From patent US20240287046A1, “COMPOUNDS AND RADIOLIGANDS FOR TARGETING NEUROTENSIN RECEPTOR AND USES THEREOF” (Full-Life Technologies HK Limited, priority 2022, published 2024)
